Assays:
[1] = target: Human CB2R (Cannabanoid receptor 2) (Homo sapiens (Human), UniProt P34972); assay: CB-2 in vitro cAMP assay (HTRF); type: cell-based; details: mean where tested more than once
Description: (§1) CB1 and CB2 receptors are Gi-coupled GPCR. Activation of CB1 and CB2 receptors results in a decrease in cAMP production. An inverse agonist of the CB1 or CB2 receptor results in the opposite effect, an increase of cAMP production. The principle of this assay is based on HTRF® technology (Homogeneous Time-Resolved Fluorescence). The method is a competitive immunoassay between native cAMP produced by cells and the cAMP labeled with the fluorophore d2. The tracer binding is quantified by a Mab anti-cAMP labeled with Eu3+TBP-NHS Cryptate (supplied as part of the assay kit). The specific signal (i.e. energy transfer) is inversely proportional to the concentration of cAMP in the standard or sample.
(§2) Human CB1R (Cannabanoid receptor 1) was stably transfected in HEK-293 cells (DiscoveRx, cat: 93-0200C1). Human CB2R (Cannabanoid receptor 2) was stably transfected in HEK-293 cells (DiscoveRx, cat: 93-0201C1). Cell cultures were maintained in media: DMEM (Invitrogen Cat#12430-054) supplemented with 10% HI FBS (Invitrogen Cat#16140-071), 1% L-glutamine (Invitrogen Cat#25030-081), 0.2 mg/ml Hygromycin B (Invitrogen Cat#10687-010), 600 μg/mL G418 (Invitrogen Cat#10131-035), and 1× Penn/Strep (Invitrogen 15140-122). After cell expansion, aliquots were cryo-stored in media containing 5% DMSO (Pierce Cat#20684).
(§3) One day prior to experiments media was warmed to 37° C. and the cryo-stored cells were thawed in a 37° C. water bath. The cells were then added to media (10× volume) and the mixture was centrifugated at 1000 RPM for 5 min. The supernate was removed and the cells were re-suspended in media. A sample of the cell suspension was evaluated on a Cedex XS automated cell counter (Innovatis Systems) to determine viable cells/ml. Additional media was added to the cells to achieve a final cell density of 4E5 cells/mL. The cells were then plated into 384 well PDL white solid bottom plates (Greiner, Cat#781945) at 20 μL per well using a Multidrop (Thermo Scientific). Cells were removed from Row P (location of cAMP standards). Two columns of cells were plated into a clear bottom 384 well PDL coated plate (Greiner, Cat#781944) to view confluence the day of the assay. The cell plates were lidded and stored for 15 minutes in a hood, then transferred to an incubator (37° C., 5% CO2, 95% humidity) overnight.
(§4) DMSO was added to all wells of 384 well V bottom polystyrene plate (Greiner, Cat#781280) except to columns 1 and 13, rows O and P and wells M13-M23 and N13-N23. Test compounds (60 μL, 10 mM) were added to Column 1 and 13 (A1 through N1 and A13 through L13). Test compounds were serially diluted 1/3 by transferring and mixing 20 μl sample with 40 μL DMSO.
(§5) DMSO (40 μL) was added to wells of 384 well V bottom polystyrene plate: O2 through O11, M14 through M23, N14 through N23, and O14 through O23. AM630 (also known as [6-iodo-2-methyl-1-[2-(4-morpholinyl)ethyl]-1H-indol-3-yl](4-methoxyphenyl)-methanone, Cayman Chemical, Cat#10006974) (60 μL, 10 mM) was added to O1; and 1-(2,4-dichlorophenyl)-7-[(4-fluorophenyl)methylene]-4,5,6,7-tetrahydro-N-1-piperidinyl-1H-indazole-3-carboxamide (60 μL, 10 mM) was added to N13. The control was serially diluted 1/3 by transferring and mixing 20 μl sample with 40 μL DMSO. This process resulted 11 doses per control, 10 mM to […].
(§6) Cells plated the day prior to the assay in clear bottom plates were viewed on an inverse microscope to ensure confluency in the range of 60-75%. […]

[2] = target: Human CB1R (Cannabanoid receptor 1) (Homo sapiens (Human), UniProt P21554); assay: CB-1 in vitro cAMP assay (HTRF); type: cell-based; details: mean where tested more than once
Sequence of Human CB1R (Cannabanoid receptor 1) (P21554 whole entry): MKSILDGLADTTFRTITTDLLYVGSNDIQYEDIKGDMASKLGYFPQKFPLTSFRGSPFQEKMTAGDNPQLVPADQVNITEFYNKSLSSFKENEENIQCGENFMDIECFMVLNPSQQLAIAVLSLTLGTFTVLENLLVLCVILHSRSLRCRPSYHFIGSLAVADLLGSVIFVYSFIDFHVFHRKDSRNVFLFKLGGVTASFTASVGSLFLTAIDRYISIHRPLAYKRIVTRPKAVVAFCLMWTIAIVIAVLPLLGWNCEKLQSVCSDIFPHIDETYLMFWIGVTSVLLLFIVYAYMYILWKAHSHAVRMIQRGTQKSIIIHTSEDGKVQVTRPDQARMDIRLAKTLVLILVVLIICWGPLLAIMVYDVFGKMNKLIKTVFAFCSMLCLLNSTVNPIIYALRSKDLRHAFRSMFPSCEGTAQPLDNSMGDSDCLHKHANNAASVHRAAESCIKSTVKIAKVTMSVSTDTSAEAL
Description: as §1, §2, §3, §4, §5, §6

Sequence of Human CB2R (Cannabanoid receptor 2) (P34972 whole entry): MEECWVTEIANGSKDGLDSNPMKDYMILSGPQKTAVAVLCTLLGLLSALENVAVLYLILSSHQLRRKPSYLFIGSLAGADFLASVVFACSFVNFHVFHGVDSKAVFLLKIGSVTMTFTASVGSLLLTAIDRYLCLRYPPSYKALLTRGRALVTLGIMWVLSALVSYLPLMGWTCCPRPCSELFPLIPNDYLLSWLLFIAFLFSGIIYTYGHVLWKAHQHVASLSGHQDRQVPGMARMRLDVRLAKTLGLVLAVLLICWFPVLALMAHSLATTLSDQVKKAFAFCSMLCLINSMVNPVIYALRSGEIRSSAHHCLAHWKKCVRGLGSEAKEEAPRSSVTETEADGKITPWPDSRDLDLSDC

| Structure (SMILES) | EC50 [1] [µM] | EC50 [2] [µM] |
| --- | --- | --- |
| O=S(=O)(CCO)N1CCC(Nc2ncnc3ccc(C(c4ccc(Cl)cc4)c4ccc(Cl)cc4)cc23)CC1 [Compound #78, 2-((4-((6-(bis(4-chlorophenyl)methyl)quinazolin-4-yl)amino)piperidin-1-yl)sulfonyl)ethanol] | 9.4 | 0.016 |
| COC(=O)c1ccc(CNc2ncnc3ccc(C(c4ccc(Cl)cc4)c4ccc(Cl)cc4)cc23)cc1 [compound 61, methyl 4-((6-(bis(4-chlorophenyl)methyl)quinazolin-4-ylamino)methyl)benzoate] | > 10 | 0.02 |
| FC(F)(F)c1ccc(Nc2ncnc3ccc(C(c4ccc(Cl)cc4)c4ccc(Cl)cc4)cc23)cc1 [Compound #143, 6-(bis(4-chlorophenyl)methyl)-N-(4-(trifluoromethyl)phenyl)quinazolin-4-amine] | > 10 | 0.091 |
| OCCCCOc1nc(NCc2cccc(C(F)(F)F)c2)c2cc(C(c3ccc(Cl)cc3)c3ccc(Cl)cc3)ccc2n1 [Compound #53, 4-((6-(bis(4-chlorophenyl)methyl)-4-((3-(trifluoromethyl)benzyl)amino)quinazolin-2-yl)oxy)butan-1-ol] | 3.7 | 0.042 |
| OCCOc1nc(NCc2cccc(C(F)(F)F)c2)c2cc(C(c3ccc(Cl)cc3)c3ccc(Cl)cc3)ccc2n1 [Compound #55, 2-((6-(bis(4-chlorophenyl)methyl)-4-((3-(trifluoromethyl)benzyl)amino)quinazolin-2-yl)oxy)ethanol] | 4.45 | 0.013 |
| COc1nc(NC2CCN(S(=O)(=O)C(F)(F)F)CC2)c2cc(C(c3ccc(Cl)cc3)c3ccc(Cl)cc3)ccc2n1 [Compound #103, 6-(bis(4-chlorophenyl)methyl)-2-methoxy-N-(1-((trifluoromethyl)sulfonyl)piperidin-4-yl)quinazolin-4-amine] | > 10 | 0.004 |
| [N-]=[N+]=NCCOc1nc(NCc2ccc(C(F)(F)F)cc2)c2cc(C(c3ccc(Cl)cc3)c3ccc(Cl)cc3)ccc2n1 [Compound #75, 2-(2-azidoethoxy)-6-(bis(4-chlorophenyl)methyl)-N-(4-(trifluoromethyl)benzyl)quinazolin-4-amine] | > 10 | 0.005 |
| O=C(NCCCOc1ccc(CCl)cc1)c1ccc(S(=O)(=O)N2CCC(Nc3ncnc4ccc(C(c5ccc(Cl)cc5)c5ccc(Cl)cc5)cc34)CC2)cc1 [Compound #30, 4-((4-((6-(bis(4-chlorophenyl)methyl)quinazolin-4-yl)amino)piperidin-1-yl)sulfonyl)-N-(3-(4-(chloromethyl)phenoxy)propyl)benzamide] | > 10 | 0.446 |
| O=C(O)c1ccc(S(=O)(=O)N2CCC(Nc3ncnc4ccc(C(c5ccc(Cl)cc5)c5ccc(Cl)cc5)cc34)CC2)s1 [Compound #25, 5-((4-((6-(bis(4-chlorophenyl)methyl)quinazolin-4-yl)amino)piperidin-1-yl)sulfonyl)thiophene-2-carboxylic acid] | 0.278 | 0.009 |
| FC(F)(F)c1cccc(CNc2ncnc3ccc(C(c4ccc(Cl)cc4)c4ccc(Cl)cc4)cc23)c1 [Compound #136, 6-(bis(4-chlorophenyl)methyl)-N-(3-(trifluoromethyl)benzyl)quinazolin-4-amine] | > 10 | 0.003 |
| COCCOc1nc(NCc2ccc(C(F)(F)F)cc2)c2cc(C(c3ccc(Cl)cc3)c3ccc(Cl)cc3)ccc2n1 [Compound #91, 6-(bis(4-chlorophenyl)methyl)-2-(2-methoxyethoxy)-N-(4-(trifluoromethyl)benzyl)quinazolin-4-amine] | > 10 | 0.03 |
| O=C(COc1nc(NCc2cccc(C(F)(F)F)c2)c2cc(C(c3ccc(Cl)cc3)c3ccc(Cl)cc3)ccc2n1)NCCO [Compound #40, 2-((6-(bis(4-chlorophenyl)methyl)-4-((3-(trifluoromethyl)benzyl)amino)quinazolin-2-yl)oxy)-N-(2-hydroxyethyl)acetamide] | 1.67 | 0.01 |
| NCCOc1nc(NCc2ccc(C(F)(F)F)cc2)c2cc(C(c3ccc(Cl)cc3)c3ccc(Cl)cc3)ccc2n1 [Compound #72, 2-(2-aminoethoxy)-6-(bis(4-chlorophenyl)methyl)-N-(4-(trifluoromethyl)benzyl)quinazolin-4-amine] | > 10 | 0.051 |
| NC(=O)c1ccc(N2CCC(Nc3ncnc4ccc(C(c5ccc(Cl)cc5)c5ccc(Cl)cc5)cc34)CC2)cc1 [Compound #90, 4-(4-((6-(bis(4-chlorophenyl)methyl)quinazolin-4-yl)amino)piperidin-1-yl)benzamide] | 0.461 | 0.034 |
| FC(F)(F)c1ccc(CNc2ncnc3ccc(C(c4ccc(Cl)cc4)c4ccc(Cl)cc4)cc23)nc1 [compound 127, 6-(bis(4-chlorophenyl)methyl)-N-((5-(trifluoromethyl)pyridin-2-yl)methyl)quinazolin-4-amine] | 1.73 | 0.03 |
| NC(=O)CCCOc1nc(NCc2ccc(C(F)(F)F)cc2)c2cc(C(c3ccc(Cl)cc3)c3ccc(Cl)cc3)ccc2n1 [Compound #66, 4-((6-(bis(4-chlorophenyl)methyl)-4-((4-(trifluoromethyl)benzyl)amino)quinazolin-2-yl)oxy)butanamide] | 0.845 | 0.008 |
| COc1cc(S(=O)(=O)N2CCC(Nc3ncnc4ccc(C(c5ccc(Cl)cc5)c5ccc(Cl)cc5)cc34)CC2)ccc1C(=O)O [Compound #22, 4-((4-((6-(bis(4-chlorophenyl)methyl)quinazolin-4-yl)amino)piperidin-1-yl)sulfonyl)-2-methoxybenzoic acid] | 0.28 | 0.023 |
| CCOC(=O)CCC(=O)N1CCC(Nc2ncnc3ccc(C(c4ccc(Cl)cc4)c4ccc(Cl)cc4)cc23)CC1 [Compound #81, Ethyl 4-(4-((6-(bis(4-chlorophenyl)methyl)quinazolin-4-yl)amino)piperidin-1-yl)-4-oxobutanoate] | 0.452 | 0.002 |
| Fc1ccc(C(c2ccc(F)cc2)c2ccc3ncnc(NC4CCN(c5ccccc5)CC4)c3c2)cc1 [Compound #67, 6-(bis(4-fluorophenyl)methyl)-N-(1-phenylpiperidin-4-yl)quinazolin-4-amine] | 1.15 | 0.001 |
| O=S(=O)(c1ccc(O)cc1)N1CCC(Nc2ncnc3ccc(C(c4ccc(Cl)cc4)c4ccc(Cl)cc4)cc23)CC1 [Compound #8] | 0.248 | 0.008 |
| COc1nc(NC2CCN(S(=O)(=O)c3ccc(C(=O)O)cc3)CC2)c2cc(C(c3ccc(Cl)cc3)c3ccc(Cl)cc3)ccc2n1 [Compound #46, 4-((4-((6-(bis(4-chlorophenyl)methyl)-2-methoxyquinazolin-4-yl)amino)piperidin-1-yl)sulfonyl)benzoic acid] | 0.616 | 0.031 |
| OCCCCOc1nc(NCc2ccc(C(F)(F)F)cc2)c2cc(C(c3ccc(Cl)cc3)c3ccc(Cl)cc3)ccc2n1 [Compound #71, 4-((6-(bis(4-chlorophenyl)methyl)-4-((4-(trifluoromethyl)benzyl)amino)quinazolin-2-yl)oxy)butan-1-ol] | > 10 | 0.019 |
| NC(=O)c1cccc(CN2CCC(Nc3ncnc4ccc(C(c5ccc(Cl)cc5)c5ccc(Cl)cc5)cc34)CC2)c1 [Compound #36, 3-((4-((6-(bis(4-chlorophenyl)methyl)quinazolin-4-yl)amino)piperidin-1-yl)methyl)benzamide] | 3.64 | 0.014 |
